In patent US9206134B2, “Polymorphic forms of compounds as prolyl hydroxylase inhibitor, and uses thereof” (BEIJING BETTA PHARMACEUTICALS CO. LTD., priority 2011, dated 2015):

What was measured:
[1] = tested on: Erythropoietin (EPO); experiment: Erythropoietin (EPO) induction in normal mice; type: in vivo; conditions: male C57BL/6 mice, oral suspension in 0.5% CMC, serum 6 hours after dosing
Method: Eight-week-old male C57BL/6 mice were dosed orally with a suspension of one crystal form of the compound in 0.5% CMC at 20, 60 and 100 mg/kg. Blood samples were obtained from the orbital venous plexus 6 hours after dosing and serum was collected (see also, Robinson A, et al., Gastroenterology. 2008, 134:145-55; Hsieh M M, et al., Blood. 2007, 110:2140-7). Samples were analyzed for EPO by electrochemiluminescence-based immunoassay (MSD) according to manufacturer's instructions. The inducted EPOs when the Crystalline Form VI in this invention was used in suspension were determined to be around 6, 297 and above 300 folds over that of the vehicle group without induction.

[2] = Stability determination of crystal forms (competitive slurry in isopropyl acetate); type: physicochemical; conditions: Forms IV and VI stirred together in isopropyl acetate solution of compound of Formula I, room temperature, 36 hrs; resulted crystal form purely Form VI
Method: 9.6 mg of the Crystalline Form IV and 1.97 mg of the Crystalline Form VI disclosed in this invention were then added into the solution and stirred at room temperature for 36 hrs. After centrifugation and drying, the resulted crystal form was determined to be purely the Crystalline Form VI.

Cc1nc(C(=O)NCC(=O)O)c(O)c2ccc(Oc3ccccc3)cc12 [Crystalline Form VI]
inducted EPO over that of the vehicle group ([1]; 20 mg/kg): around 6 folds
inducted EPO over that of the vehicle group ([1]; 60 mg/kg): ~297 folds
inducted EPO over that of the vehicle group ([1]; 100 mg/kg): above 300 folds
thermodynamic stability of crystal form [2]: thermodynamically the most stable crystal form
